Assay results from ChEMBL document CHEMBL6109046, “Recent advances in developing targeted protein degraders” (Eur J Med Chem, 2025).

What was measured:
[1] = PROTAC activity at SMARCA2/VHL in human MV4-11 cells assessed as protein degradation incubated for 18 hrs by Western blot analysis; type: cell-based; details: MV4-11, 18 h
[2] = target: Protein cereblon/Cyclin-dependent kinase 9 (Homo sapiens, UniProt P50750+Q96SW2); test: PROTAC activity at CRBN/CDK9 in human MV4-11 cells assessed as induction of CDK9 degradation measured for 3 days by Western blot analysis; type: cell-based
Sequence of Protein cereblon/Cyclin-dependent kinase 9 (P50750 whole entry): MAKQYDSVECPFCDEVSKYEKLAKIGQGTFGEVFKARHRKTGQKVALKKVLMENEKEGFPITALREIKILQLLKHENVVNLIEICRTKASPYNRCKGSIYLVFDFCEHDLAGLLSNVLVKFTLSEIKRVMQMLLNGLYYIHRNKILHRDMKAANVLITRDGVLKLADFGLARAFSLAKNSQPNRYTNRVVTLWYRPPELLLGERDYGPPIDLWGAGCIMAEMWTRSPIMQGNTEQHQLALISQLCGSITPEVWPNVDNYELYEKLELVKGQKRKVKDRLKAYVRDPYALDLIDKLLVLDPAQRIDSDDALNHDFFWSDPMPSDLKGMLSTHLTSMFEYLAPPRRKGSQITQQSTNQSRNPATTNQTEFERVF
Sequence of Protein cereblon/Cyclin-dependent kinase 9 (Q96SW2 whole entry): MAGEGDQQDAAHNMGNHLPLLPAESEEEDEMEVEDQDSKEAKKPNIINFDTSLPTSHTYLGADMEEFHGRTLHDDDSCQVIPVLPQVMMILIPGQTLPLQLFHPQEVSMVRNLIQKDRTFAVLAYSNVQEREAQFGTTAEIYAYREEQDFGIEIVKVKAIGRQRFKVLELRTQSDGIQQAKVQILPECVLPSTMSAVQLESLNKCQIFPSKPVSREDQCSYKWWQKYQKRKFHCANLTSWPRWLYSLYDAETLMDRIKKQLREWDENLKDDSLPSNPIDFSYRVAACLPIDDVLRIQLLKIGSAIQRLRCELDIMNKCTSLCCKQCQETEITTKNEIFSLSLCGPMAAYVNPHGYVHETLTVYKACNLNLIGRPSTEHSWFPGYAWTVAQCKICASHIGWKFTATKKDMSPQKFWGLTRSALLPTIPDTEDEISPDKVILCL

[3] = target: T1, Protein cereblon/Androgen receptor (Homo sapiens, UniProt P10275+Q96SW2); test: PROTAC activity at AR/CRBN in human LNCaP cells assessed as protein degradation incubated for 24 hrs by Western blot analysis; type: cell-based
T1 sequence (P10275 whole entry): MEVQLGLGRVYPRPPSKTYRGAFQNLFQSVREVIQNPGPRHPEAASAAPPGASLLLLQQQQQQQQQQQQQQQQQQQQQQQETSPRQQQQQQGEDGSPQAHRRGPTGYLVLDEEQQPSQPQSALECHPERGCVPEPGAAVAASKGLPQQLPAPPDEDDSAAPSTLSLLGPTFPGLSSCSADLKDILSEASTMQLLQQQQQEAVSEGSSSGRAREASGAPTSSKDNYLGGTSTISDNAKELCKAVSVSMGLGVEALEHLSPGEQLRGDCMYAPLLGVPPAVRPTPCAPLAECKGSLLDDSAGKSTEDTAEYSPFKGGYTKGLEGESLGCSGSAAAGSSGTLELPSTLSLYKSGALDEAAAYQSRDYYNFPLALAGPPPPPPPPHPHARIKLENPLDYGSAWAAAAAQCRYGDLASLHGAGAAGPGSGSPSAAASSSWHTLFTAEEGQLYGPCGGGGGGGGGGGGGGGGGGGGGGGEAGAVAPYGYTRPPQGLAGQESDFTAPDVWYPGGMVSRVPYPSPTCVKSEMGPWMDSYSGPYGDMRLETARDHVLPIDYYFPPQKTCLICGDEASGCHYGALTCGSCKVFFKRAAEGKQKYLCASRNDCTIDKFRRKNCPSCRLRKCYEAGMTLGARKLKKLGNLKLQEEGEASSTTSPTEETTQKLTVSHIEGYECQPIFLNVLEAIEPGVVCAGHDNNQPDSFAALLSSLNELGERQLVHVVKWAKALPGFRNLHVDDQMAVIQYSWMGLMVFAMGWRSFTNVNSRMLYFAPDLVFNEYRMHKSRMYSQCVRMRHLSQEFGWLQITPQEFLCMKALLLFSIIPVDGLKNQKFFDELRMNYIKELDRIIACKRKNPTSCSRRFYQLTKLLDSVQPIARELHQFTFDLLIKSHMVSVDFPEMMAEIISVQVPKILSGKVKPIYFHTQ
T1 sequence (Q96SW2 whole entry): as the sequence (Q96SW2 whole entry) above

[4] = PROTAC activity at VHL/BRD4 in human HeLa cells assessed as degradation of BRD4 incubated for 16 hrs by Western blot analysis; type: cell-based
[5] = target: Protein cereblon/Poly [ADP-ribose] polymerase 1 (Homo sapiens, UniProt P09874+Q96SW2); test: PROTAC activity at CRBN/PARP1 in human MDA-MB-231 cells assessed as degradation of PARP1 measured after 24 hrs by Western blot analysis; type: cell-based
Sequence of Protein cereblon/Poly [ADP-ribose] polymerase 1 (P09874 whole entry): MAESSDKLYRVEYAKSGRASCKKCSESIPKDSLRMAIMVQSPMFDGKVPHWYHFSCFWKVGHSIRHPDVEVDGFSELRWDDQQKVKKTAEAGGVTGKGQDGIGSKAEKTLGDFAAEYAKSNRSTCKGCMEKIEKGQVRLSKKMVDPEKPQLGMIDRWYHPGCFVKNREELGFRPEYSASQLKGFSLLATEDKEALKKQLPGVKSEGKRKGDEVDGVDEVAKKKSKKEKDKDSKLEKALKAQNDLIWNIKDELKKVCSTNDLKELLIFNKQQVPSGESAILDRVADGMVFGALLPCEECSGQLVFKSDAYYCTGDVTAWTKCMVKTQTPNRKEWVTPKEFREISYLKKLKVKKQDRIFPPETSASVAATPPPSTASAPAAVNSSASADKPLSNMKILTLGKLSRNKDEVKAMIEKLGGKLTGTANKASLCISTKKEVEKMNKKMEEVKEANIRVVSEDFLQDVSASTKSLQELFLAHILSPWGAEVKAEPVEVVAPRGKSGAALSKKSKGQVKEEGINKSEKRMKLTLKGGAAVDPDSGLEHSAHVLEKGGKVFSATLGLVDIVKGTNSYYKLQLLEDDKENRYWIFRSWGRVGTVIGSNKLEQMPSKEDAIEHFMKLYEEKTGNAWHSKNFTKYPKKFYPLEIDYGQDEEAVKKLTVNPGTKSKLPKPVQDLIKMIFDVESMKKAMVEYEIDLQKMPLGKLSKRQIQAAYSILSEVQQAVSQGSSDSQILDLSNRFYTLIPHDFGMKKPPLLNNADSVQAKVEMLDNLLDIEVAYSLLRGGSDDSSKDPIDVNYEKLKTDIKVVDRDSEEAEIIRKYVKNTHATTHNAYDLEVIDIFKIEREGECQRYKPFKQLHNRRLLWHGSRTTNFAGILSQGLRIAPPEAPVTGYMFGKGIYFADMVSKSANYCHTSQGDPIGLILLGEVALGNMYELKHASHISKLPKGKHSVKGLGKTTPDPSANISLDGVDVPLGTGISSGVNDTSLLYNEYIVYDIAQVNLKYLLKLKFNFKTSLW
Sequence of Protein cereblon/Poly [ADP-ribose] polymerase 1 (Q96SW2 whole entry): as the sequence (Q96SW2 whole entry) above

[6] = target: von Hippel-Lindau disease tumor suppressor/Bromodomain-containing protein 9 (Homo sapiens, UniProt Q9H8M2+P40337); test: PROTAC activity at VHL/BRD9 in human HeLa cells assessed as protein degradation by Western blot analysis; type: cell-based
Sequence of von Hippel-Lindau disease tumor suppressor/Bromodomain-containing protein 9 (Q9H8M2 whole entry): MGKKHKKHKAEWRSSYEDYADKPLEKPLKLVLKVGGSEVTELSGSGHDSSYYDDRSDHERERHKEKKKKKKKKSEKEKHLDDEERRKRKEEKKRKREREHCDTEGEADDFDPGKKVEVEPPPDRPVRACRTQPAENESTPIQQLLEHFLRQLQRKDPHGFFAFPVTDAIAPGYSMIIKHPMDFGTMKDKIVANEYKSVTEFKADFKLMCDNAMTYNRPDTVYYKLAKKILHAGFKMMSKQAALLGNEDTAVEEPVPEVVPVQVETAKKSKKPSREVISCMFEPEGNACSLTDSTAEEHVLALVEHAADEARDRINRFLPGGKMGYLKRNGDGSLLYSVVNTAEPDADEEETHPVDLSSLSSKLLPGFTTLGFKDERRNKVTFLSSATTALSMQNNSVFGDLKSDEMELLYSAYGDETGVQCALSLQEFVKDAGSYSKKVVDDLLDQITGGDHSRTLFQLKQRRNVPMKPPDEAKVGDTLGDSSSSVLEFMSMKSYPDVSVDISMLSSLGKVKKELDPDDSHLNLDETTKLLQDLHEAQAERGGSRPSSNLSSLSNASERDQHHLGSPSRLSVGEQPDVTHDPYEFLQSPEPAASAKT
Sequence of von Hippel-Lindau disease tumor suppressor/Bromodomain-containing protein 9 (P40337 whole entry): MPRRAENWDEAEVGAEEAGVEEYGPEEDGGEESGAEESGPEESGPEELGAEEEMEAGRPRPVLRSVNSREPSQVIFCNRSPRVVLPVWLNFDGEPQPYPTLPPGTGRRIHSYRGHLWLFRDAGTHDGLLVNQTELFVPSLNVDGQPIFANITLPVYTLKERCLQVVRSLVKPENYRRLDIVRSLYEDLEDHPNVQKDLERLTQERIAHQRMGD

[7] = PROTAC activity at human VHL/BRD4 in human MV4-11 cells assessed as degradation of BRD4 incubated for 16 hrs by Western blot analysis; type: cell-based; details: MV4-11, 16 h
[8] = target: von Hippel-Lindau disease tumor suppressor/Tyrosine-protein kinase BTK; test: PROTAC activity at VHL/BTK in human THP-1 cells assessed as induction of BTK degradation incubated for 24 hrs by immunoblotting analysis
[9] = target: Proprotein convertase subtilisin/kexin type 9 (Homo sapiens, UniProt Q8NBP7); test: Binding affinity to PCSK9 (unknown origin) assessed as inhibition constant
Sequence of Proprotein convertase subtilisin/kexin type 9 (Q8NBP7 31-152 limits assumed): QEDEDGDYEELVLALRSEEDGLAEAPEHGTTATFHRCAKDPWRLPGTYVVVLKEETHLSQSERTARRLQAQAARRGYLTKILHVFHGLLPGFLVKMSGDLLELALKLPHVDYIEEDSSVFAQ
Sequence of Proprotein convertase subtilisin/kexin type 9 (Q8NBP7 153-692 limits assumed): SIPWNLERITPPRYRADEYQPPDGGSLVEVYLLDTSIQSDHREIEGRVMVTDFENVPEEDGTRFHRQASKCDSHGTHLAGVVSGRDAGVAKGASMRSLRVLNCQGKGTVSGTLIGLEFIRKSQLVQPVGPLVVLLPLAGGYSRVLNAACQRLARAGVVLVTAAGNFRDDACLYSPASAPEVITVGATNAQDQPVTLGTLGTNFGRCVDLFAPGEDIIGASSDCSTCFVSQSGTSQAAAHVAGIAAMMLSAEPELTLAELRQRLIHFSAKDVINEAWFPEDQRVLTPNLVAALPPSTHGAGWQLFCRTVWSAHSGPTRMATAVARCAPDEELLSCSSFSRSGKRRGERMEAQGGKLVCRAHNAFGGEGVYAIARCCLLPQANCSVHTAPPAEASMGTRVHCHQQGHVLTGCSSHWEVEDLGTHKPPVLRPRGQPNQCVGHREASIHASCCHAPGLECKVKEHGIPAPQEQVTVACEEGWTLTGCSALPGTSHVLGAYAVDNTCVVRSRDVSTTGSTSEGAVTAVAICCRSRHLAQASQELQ

[10] = Downregulation of induced PCSK9 expression in HEK293 cells by Western blot analysis; type: functional, cell-based; details: Homo sapiens
[11] = target: von Hippel-Lindau disease tumor suppressor/Bromodomain-containing protein 4 (Homo sapiens, UniProt O60885+P40337); test: PROTAC activity at human VHL/BRD4 in human HeLa cells assessed as degradation of BRD4 incubated for 24 hrs by Western blot analysis; type: cell-based
Sequence of von Hippel-Lindau disease tumor suppressor/Bromodomain-containing protein 4 (P40337 whole entry, looked up, other chains not shown): as the sequence (P40337 whole entry) above

[12] = target: T1, Protein cereblon/Androgen receptor; test: PROTAC activity at CRBN/AR in human VCaP cells assessed as induction of AR degradation incubated for 24 hrs by Western blot analysis; type: cell-based

Cc1ncsc1-c1ccc(CNC(=O)[C@@H]2C[C@@H](O)CN2C(=O)[C@@H](NC(=O)C2(F)CC2)C(C)(C)C)c(OCCOc2ccc(CN3CCN(c4cc(-c5ccccc5O)nnc4N)CC3)cc2)c1
DC50 [1]: 6 nM

COc1cc(/C=C/C(=O)N2CCC=CC2=O)cc(OC)c1OCCN1CCN(C(=O)CN2CCC(C(=O)Nc3ncc(SCc4ncc(C(C)(C)C)o4)s3)CC2)CC1
DC50 [2]: 9 nM

CC1(C)[C@H](NC(=O)c2ccc(OCC(=O)NCCCOCCOCCOCCCN(C(=O)CCl)C(C(=O)NCc3ccccc3)c3ccc(Cl)c(Cl)c3)cc2)C(C)(C)[C@H]1Oc1ccc(C#N)c(Cl)c1 (some centres undefined)
DC50 [3]: < 10000 nM

COC(=O)C[C@H]1[C@]2(C)C3=C(C)[C@H](c4ccoc4-c4ccc(C(=O)NCCCNC(=O)C[C@@H]5N=C(c6ccc(Cl)cc6)c6c(sc(C)c6C)-n6c(C)nnc65)cc4)C[C@H]3O[C@@H]2[C@@H]2OC(=O)[C@]3(C)C=CC(=O)[C@@]1(C)[C@@H]23
DC50 [4]: 36000 nM

Cc1sc2c(c1C)C(c1ccc(Cl)cc1)=N[C@@H](CC(=O)NCCCCOc1ccc(C3CC(c4ccc(Br)cc4)=NN3C(=O)CCl)cc1)c1nnc(C)n1-2 (some centres undefined)
DC50 [4]: < 10000 nM

Cc1sc2c(c1C)C(c1ccc(Cl)cc1)=N[C@@H](CC(=O)NCCCCOc1ccc(Oc3ccc(N(Cc4ccccc4)C(=O)CCl)cc3)cc1)c1nnc(C)n1-2
DC50 [4]: < 10000 nM

COc1ccc(C2=N[C@H](c3ccc(Cl)cc3)[C@H](c3ccc(Cl)cc3)N2C(=O)N2CCN(CC(=O)NCCOCCOCCOCCOCCn3cc(-c4ccc(-n5cc6cccc(C(N)=O)c6n5)cc4)nn3)C(=O)C2)c(OC(C)C)c1
DC50 [5]: < 10000 nM

Cc1ncsc1-c1ccc([C@H](CC[C@H](C)CCN2CCC(c3ccc4c(c3)n(C3CCCC3)c3nc(=O)c5c(Br)cccc5n43)CC2)NC(=O)[C@@H]2C[C@@H](O)CN2C(=O)[C@@H](NC(=O)C2(F)CC2)C(C)(C)C)cc1
DC50 [1]: 1 nM

COc1cc(-c2cn(C)c(=O)c3cnccc23)c(OC)cc1CN1CCC(OCCCCCC(=O)N2CCN(c3ccc4c(NCCN)nc(C5(c6ccc(Cl)cc6)CCCCC5)nc4c3)CC2)CC1
DC50 [6]: 90 nM

Cc1sc2c(c1C)C(c1ccc(Cl)cc1)=N[C@H](CC(=O)NCCCn1cc(CNC(=O)c3ccc(S(=O)(=O)N(CC#N)C(=O)CC45CC6CC(CC(C6)C4)C5)cc3)nn1)c1nnc(C)n1-2
DC50 [7]: 3000 nM

CN[C@@H](C)C(=O)N[C@H](C(=O)N1Cc2cc(OCCOCCOCCOCCOCCOC(=O)N3CCC[C@H](n4nc(-c5ccc(Oc6ccc(F)cc6F)cc5)c(C(N)=O)c4N)C3)ccc2C[C@@H]1C(=O)NC1CCCc2ccccc21)C(C)(C)C (some centres undefined)
DC50 [8]: 182 nM

CCOC(=O)C[C@@H](c1ccc(C)c(CN2C[C@@H](C)Oc3ccccc3S2(=O)=O)c1)c1cc(OCCNC(=O)CNC(=O)C[C@@H]2N=C(c3ccc(Cl)cc3)c3c(sc(C)c3C)-n3c(C)nnc32)c2c(c1)nnn2C
DC50 [2]: < 500 nM

CC(C)(C)OC(=O)N=C(NCCC[C@H](NC(=O)OC(C)(C)C)C(=O)NCCOCCOc1cc2c(cc1Oc1ccc(-c3ccc(C(=O)O)cc3)c(F)c1)[C@@](C)(CC(=O)Nc1nccs1)NCC2)NC(=O)OC(C)(C)C
Ki [9]: 107 nM | IC50 [10]: 3400 nM

Cc1ncsc1-c1ccc([C@H](C)NC(=O)[C@@H]2C[C@@H](O)CN2C(=O)[C@H](c2cc(N3CCC(CN4CCC(OC5CC(Oc6cc(N7[C@H]8CC[C@H]7CN(c7cc(-c9ccccc9O)nnc7N)C8)ccn6)C5)CC4)CC3)no2)C(C)C)cc1 (some centres undefined)
DC50 [1]: 0.03 nM

Cc1sc2c(c1C)C(c1ccc(Cl)cc1)=N[C@@H](CC(=O)NCCCCCCCCCCNC(=O)[C@@]13CCC(C)(C)C[C@@H]1[C@@H]1C(=O)C=C4[C@]5(C)C=C(C#N)C(=O)C(C)(C)[C@H]5CC[C@]4(C)[C@@]1(C)CC3)c1nnc(C)n1-2
DC50 [2]: < 200 nM

Cc1sc2c(c1C)C(c1ccc(Cl)cc1)=NC(CC(=O)NCCOCCOCCNC(=O)c1cccc(S(=O)(=O)Nc3ccc(C)c4c(C#N)c[nH]c34)c1)c1nnc(C)n1-2 (centres undefined)
DC50 [11]: 10800 nM

Cc1sc2c(c1C)C(c1ccc(Cl)cc1)=N[C@@H](CC(=O)NCCCOCCOCCOCCCNC(=O)COc1c(Br)cc(/C=C3\C(=O)Nc4ccc(I)cc43)cc1Br)c1nnc(C)n1-2 (stereo in doubt)
DC50 [7]: 900 nM

COc1cc(O[C@H]2C(C)(C)[C@H](NC(=O)c3ccc(N4CCC(CN5CCN(c6ccc(C(=O)N[C@H]7CCC(=O)NC7=O)c(F)c6)CC5)CC4)cc3)C2(C)C)ccc1C#N [LUXDEGALUTAMIDE]
DC50 [12]: < 1 nM
